Tests used:
corn = experiment: Test C preemergence; format: in vivo, Zea mays; details: for Plant response rating (scale of 0 to 100 where 0 is no effect and 100 is complete control): Corn, preemergence; for Corn plant response rating (0 to 100): Preemergence, visual rating after 13 to 15 d
In short: (§1)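 Test chemicals in a non-phytotoxic solvent mixture with surfactant were applied to pots of plants at 2 to 18 cm (1- to 4-leaf stage) for postemergence treatment, grown in a peat-based medium with vermiculite, starter nutrients and dolomitic limestone. Preemergence treatment was to seeds freshly planted in loam soil mixed with sand.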

barnyardgrass = experiment: Test C preemergence; format: in vivo, Echinochloa crus-galli; details: for Plant response rating (scale of 0 to 100 where 0 is no effect and 100 is complete control): Barnyardgrass, preemergence; for Barnyardgrass plant response rating (0 to 100): Preemergence, visual rating after 13 to 15 d
In short: as §1

galium = experiment: Test C preemergence; format: in vivo, Galium aparine; details: for Plant response rating (scale of 0 to 100 where 0 is no effect and 100 is complete control): Galium, preemergence; for Galium plant response rating (0 to 100): Preemergence, visual rating after 13 to 15 d
In short: as §1

bromegrass, down = experiment: Test D preemergence; format: in vivo, Bromus tectorum; details: for Plant response rating: Bromegrass, Down: scale 0 to 100
In short: (§2)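 Test compounds are formulated in a non-phytotoxic solvent with surfactant. They are applied to the soil surface right after seeding in silt loam, or sprayed onto plants 2 to 18 cm tall in peat-based potting medium. Response is judged by eye against controls after 14 to 21 d.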

chickweed = experiment: Test D postemergence; format: in vivo, Stellaria media; details: scale 0 to 100
In short: as §2

canarygrass = experiment: Test D postemergence; format: in vivo, Phalaris minor; details: scale 0 to 100
In short: as §2

velvetleaf = experiment: Test C preemergence; format: in vivo, Abutilon theophrasti; details: for Velvetleaf plant response rating (0 to 100): Preemergence, visual rating after 13 to 15 d
In short: as §1

windgrass = experiment: Test D preemergence; format: in vivo, Apera spica-venti; details: for Plant response rating: Windgrass: scale 0 to 100
In short: as §2

barley, winter = experiment: Test D preemergence; format: in vivo, Hordeum vulgare; details: for Plant response rating: Barley, Winter: scale 0 to 100
In short: as §2

barley, spring = experiment: Test D preemergence; format: in vivo, Hordeum vulgare; details: for Plant response rating: Barley, Spring: scale 0 to 100
In short: as §2

oat, wild = experiment: Test D preemergence; format: in vivo, Avena fatua; details: for Plant response rating: Oat, Wild: scale 0 to 100
In short: as §2

wheat, spring = experiment: Test D preemergence; format: in vivo, Triticum aestivum; details: for Plant response rating: Wheat, Spring: scale 0 to 100
In short: as §2

wheat, winter = experiment: Test D preemergence; format: in vivo, Triticum aestivum; details: for Plant response rating: Wheat, Winter: scale 0 to 100
In short: as §2

lambsquarters = experiment: Test C preemergence; format: in vivo, Chenopodium album; details: for Plant response rating (scale of 0 to 100 where 0 is no effect and 100 is complete control): Lambsquarters, preemergence; for Lambsquarters plant response rating (0 to 100): Preemergence, visual rating after 13 to 15 d
In short: as §1

ragweed = experiment: Test C preemergence; format: in vivo, Ambrosia elatior; details: for Ragweed plant response rating (0 to 100): Preemergence, visual rating after 13 to 15 d; for Plant response rating (scale of 0 to 100 where 0 is no effect and 100 is complete control): Ragweed, preemergence
In short: as §1

foxtail, green = experiment: Test D postemergence; format: in vivo, Setaria viridis; details: scale 0 to 100
In short: as §2

foxtail, giant = experiment: Test C preemergence; format: in vivo, Setaria faberii; details: for Plant response rating (scale of 0 to 100 where 0 is no effect and 100 is complete control): Foxtail, Giant, preemergence; for Foxtail, Giant plant response rating (0 to 100): Preemergence, visual rating after 13 to 15 d
In short: as §1

[1] = 16 g ai/ha, 0 is no effect, 100 is complete control

Compound: Fc1ccc(-c2nc(OCC(F)(F)F)n(Cc3ccnc(C(F)(F)F)c3)n2)cc1 [Compound 30]
- Plant response rating (scale of 0 to 100 where 0 is no effect and 100 is complete control) (corn; 125 g ai/ha): 30
- Plant response rating (scale of 0 to 100 where 0 is no effect and 100 is complete control) (corn; 250 g ai/ha): 35
- Corn plant response rating (0 to 100) (corn; 31 g ai/ha): 5
- Corn plant response rating (0 to 100) (corn; 62 g ai/ha): 15
- Plant response rating (scale of 0 to 100 where 0 is no effect and 100 is complete control) (barnyardgrass; 125 g ai/ha): 85
- Plant response rating (scale of 0 to 100 where 0 is no effect and 100 is complete control) (barnyardgrass; 250 g ai/ha): 98
- Barnyardgrass plant response rating (0 to 100) (barnyardgrass; 31 g ai/ha): 40
- Barnyardgrass plant response rating (0 to 100) (barnyardgrass; 62 g ai/ha): 85
- Plant response rating (scale of 0 to 100 where 0 is no effect and 100 is complete control) (galium; 125 g ai/ha): 95
- Plant response rating (scale of 0 to 100 where 0 is no effect and 100 is complete control) (galium; 250 g ai/ha): 95
- Galium plant response rating (0 to 100) (galium; 31 g ai/ha): 60
- Galium plant response rating (0 to 100) (galium; 62 g ai/ha): 65
- Plant response rating (0 to 100), Bromegrass, Down (bromegrass, down; [1]): 35
- Plant response rating: Bromegrass, Down (bromegrass, down; 31 g ai/ha): 40
- Plant response rating: Bromegrass, Down (bromegrass, down; 62 g ai/ha): 55
- Plant response rating: Bromegrass, Down (bromegrass, down; 125 g ai/ha): 70
- Plant response rating: Chickweed (chickweed; 16 g ai/ha): 70
- Plant response rating: Chickweed (chickweed; 31 g ai/ha): 80
- Plant response rating: Chickweed (chickweed; 62 g ai/ha): 100
- Plant response rating: Chickweed (chickweed; 125 g ai/ha): 100
- Plant response rating: Canarygrass (canarygrass; 16 g ai/ha): 55
- Plant response rating: Canarygrass (canarygrass; 31 g ai/ha): 65
- Plant response rating: Canarygrass (canarygrass; 62 g ai/ha): 75
- Plant response rating: Canarygrass (canarygrass; 125 g ai/ha): 80
- Velvetleaf plant response rating (0 to 100) (velvetleaf; 31 g ai/ha): 20
- Velvetleaf plant response rating (0 to 100) (velvetleaf; 62 g ai/ha): 70
- Plant response rating (scale of 0 to 100 where 0 is no effect and 100 is complete control) (velvetleaf; Velvetleaf, preemergence, 250 g ai/ha): 85
- Plant response rating (0 to 100), Windgrass (windgrass; [1]): 25
- Plant response rating: Windgrass (windgrass; 62 g ai/ha): 100
- Plant response rating: Windgrass (windgrass; 125 g ai/ha): 100
- Plant response rating (0 to 100), Barley, Winter (barley, winter; [1]): 20
- Plant response rating: Barley, Winter (barley, winter; 31 g ai/ha): 25
- Plant response rating: Barley, Winter (barley, winter; 62 g ai/ha): 30
- Plant response rating: Barley, Winter (barley, winter; 125 g ai/ha): 40
- Plant response rating (0 to 100), Barley, Spring (barley, spring; [1]): 30
- Plant response rating: Barley, Spring (barley, spring; 31 g ai/ha): 40
- Plant response rating: Barley, Spring (barley, spring; 62 g ai/ha): 35
- Plant response rating: Barley, Spring (barley, spring; 125 g ai/ha): 45
- Plant response rating (0 to 100), Oat, Wild (oat, wild; [1]): 45
- Plant response rating: Oat, Wild (oat, wild; 62 g ai/ha): 70
- Plant response rating: Oat, Wild (oat, wild; 125 g ai/ha): 80
- Plant response rating (0 to 100), Wheat, Spring (wheat, spring; [1]): 25
- Plant response rating: Wheat, Spring (wheat, spring; 62 g ai/ha): 35
- Plant response rating: Wheat, Spring (wheat, spring; 125 g ai/ha): 45
- Plant response rating (0 to 100), Wheat, Winter (wheat, winter; [1]): 15
- Plant response rating: Wheat, Winter (wheat, winter; 62 g ai/ha): 25
- Plant response rating: Wheat, Winter (wheat, winter; 125 g ai/ha): 35
- Plant response rating (scale of 0 to 100 where 0 is no effect and 100 is complete control) (lambsquarters; 125 g ai/ha): 95
- Plant response rating (scale of 0 to 100 where 0 is no effect and 100 is complete control) (lambsquarters; 250 g ai/ha): 98
- Lambsquarters plant response rating (0 to 100) (lambsquarters; 31 g ai/ha): 98
- Lambsquarters plant response rating (0 to 100) (lambsquarters; 62 g ai/ha): 98
- Ragweed plant response rating (0 to 100) (ragweed; 31 g ai/ha): 55
- Ragweed plant response rating (0 to 100) (ragweed; 62 g ai/ha): 65
- Plant response rating (scale of 0 to 100 where 0 is no effect and 100 is complete control) (ragweed; 125 g ai/ha): 80
- Plant response rating (scale of 0 to 100 where 0 is no effect and 100 is complete control) (ragweed; 250 g ai/ha): 90
- Plant response rating: Foxtail, Green (foxtail, green; 16 g ai/ha): 55
- Plant response rating: Foxtail, Green (foxtail, green; 31 g ai/ha): 75
- Plant response rating: Foxtail, Green (foxtail, green; 62 g ai/ha): 85
- Plant response rating: Foxtail, Green (foxtail, green; 125 g ai/ha): 90
- Plant response rating (scale of 0 to 100 where 0 is no effect and 100 is complete control) (foxtail, giant; 125 g ai/ha): 100
- Plant response rating (scale of 0 to 100 where 0 is no effect and 100 is complete control) (foxtail, giant; 250 g ai/ha): 100
- Foxtail, Giant plant response rating (0 to 100) (foxtail, giant; 31 g ai/ha): 98
- Foxtail, Giant plant response rating (0 to 100) (foxtail, giant; 62 g ai/ha): 100

From patent US10681909B2, “Herbicidal triazoles” (FMC Corporation, priority 2014, dated 2020)
